How the values were obtained:
[1] = system: green foxtail; assay: Soil treatment test for upland field; assay type: in vivo, Setaria viridis; design: key: 0 = normal development, 5 = all killed; details: 500 g/ha, 3 weeks, glass house 25° C.
Procedure, shortened: (§1)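 Seeds were sown in alluvial soil in pots, and a wettable powder diluted in water with 0.05% surfactant was sprayed evenly on the soil surface at 500 g/ha. Plants were kept in a glass house at about 25° C for 3 weeks, then damage was scored 0–5 against untreated controls.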

[2] = system: livid amaranth; assay: Soil treatment test for upland field; assay type: in vivo, Amaranthus lividus; design: key: 0 = normal development, 5 = all killed; details: 500 g/ha, 3 weeks, glass house 25° C.
Procedure, shortened: as §1

[3] = system: arrowhead; assay: Herbicidal test for paddy field; assay type: in vivo, Sagittaria pygmaea; details: 500 g/ha, dropwise addition to paddy water at 1.5 leaf stage of barnyard grass; glass house 25° C., 3 weeks; rank 0-5 vs non-treated district; further: key: 0: normal development; 1: Less damaged; 2: Slightly damaged; 3: Moderately damaged; 4: Severely damaged; 5: All killed
Procedure, shortened: (§2)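 Wettable-powder formulations in water with 0.05% surfactant were dripped onto flooded (3 cm) Ube alluvial-soil pots at 500 g/ha, applied at barnyard grass 1.5-leaf stage. Plants were kept in a glasshouse at 25° C. for 3 weeks. Damage was scored 0 (normal) to 5 (all killed) versus untreated plants.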

[4] = system: Cassia obtusifolia; assay: Foliar spread test for upland field; assay type: in vivo; design: key: 0 = normal development, 5 = all killed; details: foliar spray, 500 ppm, 3 weeks, glass house 25° C.
Procedure, shortened: (§3)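 Plants grown about 2 weeks at 25 °C in volcanic ash soil were sprayed with wettable powder diluted to 500 ppm in water with 0.5% surfactant. After 3 weeks at 25 °C, damage was scored 0 (normal) to 5 (all killed) against untreated plants.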

[5] = system: Xanthium pensylvanicum; assay: Foliar spread test for upland field; assay type: in vivo; design: key: 0 = normal development, 5 = all killed; details: foliar spray, 500 ppm, 3 weeks, glass house 25° C.
Procedure, shortened: as §3

[6] = system: barnyard grass; assay: Soil treatment test for upland field; assay type: in vivo, Eschinochloa crusgalli; design: key: 0 = normal development, 5 = all killed; details: 500 g/ha, 3 weeks, glass house 25° C.
Procedure, shortened: as §1

[7] = system: annual bluegrass; assay: Soil treatment test for upland field; assay type: in vivo, Poa annua; design: key: 0 = normal development, 5 = all killed; details: 500 g/ha, 3 weeks, glass house 25° C.
Procedure, shortened: as §1

[8] = system: common Cocklebur (Xanthium strumarium); assay: Soil treatment test for upland field; assay type: in vivo; details: 500 g/ha, 3 weeks, glass house 25° C. Further: key: 0: normal development; 1: Less damaged; 2: Slightly damaged; 3: Moderately damaged; 4: Severely damaged; 5: All killed.
Procedure, shortened: as §1

[9] = system: sicklepod (Cassia obtusifolia); assay: Soil treatment test for upland field; assay type: in vivo; details: 500 g/ha, 3 weeks, glass house 25° C. Further: key: 0: normal development; 1: Less damaged; 2: Slightly damaged; 3: Moderately damaged; 4: Severely damaged; 5: All killed.
Procedure, shortened: as §1

[10] = system: annual bluegrass; assay: Foliar spread test for upland field; assay type: in vivo, Poa annua; design: key: 0 = normal development, 5 = all killed (6 ranks vs. untreated); details: foliar spray, 500 ppm, 3 weeks, glass house 25° C.
Procedure, shortened: as §3

[11] = system: morning glory; assay: Foliar spread test for upland field; assay type: in vivo, Ipomoea spps.; design: key: 0 = normal development, 5 = all killed (6 ranks vs. untreated); details: foliar spray, 500 ppm, 3 weeks, glass house 25° C.
Procedure, shortened: as §3

[12] = system: green foxtail; assay: Foliar spread test for upland field; assay type: in vivo, Setaria viridis; design: key: 0 = normal development, 5 = all killed (6 ranks vs. untreated); details: foliar spray, 500 ppm, 3 weeks, glass house 25° C.
Procedure, shortened: as §3

[13] = system: livid amaranth; assay: Foliar spread test for upland field; assay type: in vivo, Amaranthus lividus; design: key: 0 = normal development, 5 = all killed (6 ranks vs. untreated); details: foliar spray, 500 ppm, 3 weeks, glass house 25° C.
Procedure, shortened: as §3

[14] = system: wheat; assay: Soil treatment test for upland field; assay type: in vivo; design: key: 0 = normal development, 5 = all killed; details: 500 g/ha, 3 weeks, glass house 25° C.
Procedure, shortened: as §1

[15] = system: solgum; assay: Soil treatment test for upland field; assay type: in vivo; design: key: 0 = normal development, 5 = all killed; details: 500 g/ha, 3 weeks, glass house 25° C.
Procedure, shortened: as §1

[16] = system: corn; assay: Soil treatment test for upland field; assay type: in vivo; design: key: 0 = normal development, 5 = all killed; details: 500 g/ha, 3 weeks, glass house 25° C.
Procedure, shortened: as §1

[17] = system: sugar beat; assay: Soil treatment test for upland field; assay type: in vivo; design: key: 0 = normal development, 5 = all killed; details: 500 g/ha, 3 weeks, glass house 25° C.
Procedure, shortened: as §1

[18] = system: common lambsquarters; assay: Soil treatment test for upland field; assay type: in vivo, Chenopodium album; design: key: 0 = normal development, 5 = all killed; details: 500 g/ha, 3 weeks, glass house 25° C.
Procedure, shortened: as §1

[19] = system: velvetleaf; assay: Soil treatment test for upland field; assay type: in vivo, Abutilon theophrasti; design: key: 0 = normal development, 5 = all killed; details: 500 g/ha, 3 weeks, glass house 25° C.
Procedure, shortened: as §1

[20] = system: blackgrass; assay: Soil treatment test for upland field; assay type: in vivo, Alopecurus aegualis; design: key: 0 = normal development, 5 = all killed; details: 500 g/ha, 3 weeks, glass house 25° C.
Procedure, shortened: as §1

[21] = system: barnyardgrjass; assay: Foliar spread test for upland field; assay type: in vivo, Eschinochloa crusgalli; design: key: 0 = normal development, 5 = all killed (6 ranks vs. untreated); details: foliar spray, 500 ppm, 3 weeks, glass house 25° C.
Procedure, shortened: as §3

[22] = system: Cyperus serotinus Rottb.; assay: Herbicidal test for paddy field; assay type: in vivo; details: 500 g/ha, dropwise addition to paddy water at 1.5 leaf stage of barnyard grass; glass house 25° C., 3 weeks; rank 0-5 vs non-treated district; further: key: 0: normal development; 1: Less damaged; 2: Slightly damaged; 3: Moderately damaged; 4: Severely damaged; 5: All killed
Procedure, shortened: as §2

[23] = system: velvetleaf; assay: Foliar spread test for upland field; assay type: in vivo, Abutilon theophrasti; design: key: 0 = normal development, 5 = all killed (6 ranks vs. untreated); details: foliar spray, 500 ppm, 3 weeks, glass house 25° C.
Procedure, shortened: as §3

[24] = system: blackgrass; assay: Foliar spread test for upland field; assay type: in vivo, Alopecurus aegualis; design: key: 0 = normal development, 5 = all killed (6 ranks vs. untreated); details: foliar spray, 500 ppm, 3 weeks, glass house 25° C.
Procedure, shortened: as §3

[25] = system: morning glory; assay: Soil treatment test for upland field; assay type: in vivo, Ipomoea spps.; design: key: 0 = normal development, 5 = all killed; details: 500 g/ha, 3 weeks, glass house 25° C.
Procedure, shortened: as §1

[26] = system: common lambsquarters; assay: Foliar spread test for upland field; assay type: in vivo, Chenopodium album; design: key: 0 = normal development, 5 = all killed (6 ranks vs. untreated); details: foliar spray, 500 ppm, 3 weeks, glass house 25° C.
Procedure, shortened: as §3

Fc1ccc2nc(-c3cccc(Oc4ccc(F)c(C(F)(F)F)c4)n3)oc2c1 [I-a-7]
1: Effects Barnyardgrass [21] | Effects Blackgrass [24] | Effects Morning glory [25]
5: Effects Green foxtail [1] | Effects Livid amaranth [2] | Effects Annual bluegrass [7] | Effects Livid amaranth [13] | Effects Sugar beat [17] | Effects Common lambsquarters [18]
0: Effects Arrowhead [3] | Effects Common Cocklebur [8] | Effects Wheat [14] | Effects Solgum [15] | Effects Corn [16] | Effects Velvetleaf [19] | Effects Cyperus serotinus Rottb. [22]
4: Effects Common Cocklebur [5] | Effects Barnyardgrass [6] | Effects Blackgrass [20] | Effects Common lambsquarters [26]
3: Effects Sicklepod [4] | Effects Sicklepod [9] | Effects Annual bluegrass [10] | Effects Morning glory [11] | Effects Green foxtail [12] | Effects Velvetleaf [23]

FC(F)(F)c1cccc(Oc2cccc(-c3nc4cc(Cl)ccc4o3)n2)c1 [I-a-3, 6-(5-chlorobenzoxazol-2-yl)-2-(3-trifluoromethylphenoxy)pyridine]
1: Effects Wheat [14] | Effects Solgum [15] | Effects Corn [16] | Effects Barnyardgrass [21] | Effects Blackgrass [24]
0: Effects Arrowhead [3] | Effects Cyperus serotinus Rottb. [22]
5: Effects Green foxtail [1] | Effects Livid amaranth [2] | Effects Annual bluegrass [7] | Effects Sicklepod [9] | Effects Morning glory [11] | Effects Livid amaranth [13] | Effects Sugar beat [17] | Effects Common lambsquarters [18] | Effects Common lambsquarters [26]
2: Effects Common Cocklebur [8]
3: Effects Green foxtail [12] | Effects Velvetleaf [19] | Effects Morning glory [25]
4: Effects Sicklepod [4] | Effects Common Cocklebur [5] | Effects Barnyardgrass [6] | Effects Annual bluegrass [10] | Effects Blackgrass [20] | Effects Velvetleaf [23]

Fc1ccc2nc(-c3cccc(Oc4cccc(C(F)(F)F)c4)n3)oc2c1 [I-a-6, 6-(6-fluorobenzoxazol-2-yl)-2-(3-trifluoromethylphenoxy)pyridine]
5: Effects Green foxtail [1] | Effects Livid amaranth [2] | Effects Sicklepod [4] | Effects Common Cocklebur [5] | Effects Barnyardgrass [6] | Effects Annual bluegrass [7] | Effects Annual bluegrass [10] | Effects Morning glory [11] | Effects Green foxtail [12] | Effects Livid amaranth [13] | Effects Sugar beat [17] | Effects Common lambsquarters [18] | Effects Blackgrass [20] | Effects Barnyardgrass [21] | Effects Velvetleaf [23] | Effects Blackgrass [24] | Effects Morning glory [25] | Effects Common lambsquarters [26]
1: Effects Sicklepod [9] | Effects Wheat [14]
2: Effects Velvetleaf [19] | Effects Cyperus serotinus Rottb. [22]
0: Effects Arrowhead [3] | Effects Common Cocklebur [8] | Effects Solgum [15] | Effects Corn [16]

From patent US7402548B2, “Benzoxazole compounds, process for producing the same and herbicides” (Kyoyu Agri Co., Ltd., priority 2000, dated 2008)
